The nature of data set [1]: Solubility of compound. The data set is classed as physicochemical.
Data set [2] in a line: Solubility of compound in 5 percent PBS buffer. The data set is classed as physicochemical.
Data set [3] in a line: Solubility of the compound in saline. It counts as physicochemical. As to conditions: buffer.
The subject of data set [4] is HEK293. Put plainly: PROTAC activity at E3 ligase/long BRD4 (unknown origin) expressed in HEK293 cells assessed as induction of BRD4 degradation at 300 to 1000 nM incubated for 18 hrs by Western blot analysis. As to conditions: Homo sapiens, dose 300-1000 nM. The data set is classed as cell-based.
Data set [5] relates to HEK293. Put plainly: PROTAC activity at E3 ligase/short BRD4 (unknown origin) expressed in HEK293 cells assessed as induction of BRD4 degradation at 300 to 1000 nM incubated for 18 hrs by Western blot analysis. The data set is classed as cell-based. The conditions noted are these: Homo sapiens, dose 300-1000 nM. A general note: Immunoblotting shows a protein as a band on a membrane.

Data set [6] has as its system HEK293. Put plainly: PROTAC activity at E3 ligase/long BRD4 (unknown origin) expressed in HEK293 cells assessed as induction of BRD4 degradation at 300 to 1000 nM incubated for 18 hrs in presence of MG132 by Western blot analysis. The data set is classed as cell-based. As to conditions: Homo sapiens, dose 300-1000 nM.
Data set [7] has as its system HEK293. Put plainly: PROTAC activity at E3 ligase/short BRD4 (unknown origin) expressed in HEK293 cells assessed as induction of BRD4 degradation at 300 to 1000 nM incubated for 18 hrs in presence of MG132 by Western blot analysis. It counts as cell-based. The conditions noted are these: Homo sapiens, dose 300-1000 nM.
Data set [8] deals with HEK293. Put plainly: PROTAC activity at E3 ligase/long BRD4 (unknown origin) expressed in HEK293 cells assessed as induction of BRD4 degradation at 300 to 1000 nM incubated for 18 hrs in presence of MLN4924 by Western blot analysis. It counts as cell-based. As to conditions: Homo sapiens, dose 300-1000 nM.
Data set [9] relates to HEK293. Put plainly: PROTAC activity at E3 ligase/short BRD4 (unknown origin) expressed in HEK293 cells assessed as induction of BRD4 degradation at 300 to 1000 nM incubated for 18 hrs in presence of MLN4924 by Western blot analysis. As to conditions: Homo sapiens, dose 300-1000 nM. The data set is classed as cell-based.
The subject of data set [10] is HEK293. Put plainly: PROTAC activity at E3 ligase/long BRD4 (unknown origin) expressed in HEK293 cells assessed as induction of BRD4 degradation at 300 to 1000 nM incubated for 18 hrs in presence of thalidomide by Western blot analysis. It counts as cell-based. The conditions noted are these: Homo sapiens, dose 300-1000 nM.
For data set [11], the system named is HEK293. Put plainly: PROTAC activity at E3 ligase/short BRD4 (unknown origin) expressed in HEK293 cells assessed as induction of BRD4 degradation at 300 to 1000 nM incubated for 18 hrs in presence of thalidomide by Western blot analysis. It counts as cell-based. The conditions noted are these: Homo sapiens, dose 300-1000 nM.

Activity calls are given as the source filed them. The calls are words filed in the database; no cut-off is given here.

Turning to `Cc1ncsc1-c1ccc(CNC(=O)[C@@H]2C[C@@H](O)CN2C(=O)[C@@H](NC(=O)CCCCC(=O)NC2CCN(C(C#CCCSc3ccc(C(=O)NCCNC(=O)C[C@@H]4N=C(c5ccc(Cl)cc5)c5c(sc(C)c5C)-n5c(C)nnc54)cc3)C3CCOCC3)CC2)C(C)(C)C)cc1` (some centres undefined), the solubility result in data set [1] is on record as “Insoluble”.

With `Cc1sc2c(c1C)C(c1ccc(Cl)cc1)=N[C@@H](CC(=O)NCC#CC(C1CCN(C(=O)COc3cccc4c3C(=O)N(C3CCC(=O)NC3=O)C4=O)CC1)N1CCN(C(=O)COc3cccc4c3C(=O)N(C3CCC(=O)NC3=O)C4=O)CC1)c1nnc(C)n1-2` (some centres undefined), the solubility entry in data set [2], in [3] and in data set [1] was “Insoluble” in each case.

Turning to `Cc1sc2c(c1C)C(c1ccc(Cl)cc1)=N[C@@H](CC(=O)NCCNC(=O)c1ccc(SCCC#CC(C3CCOCC3)N3CCC(NC(=O)COc4cccc5c4C(=O)N(C4CCC(=O)NC4=O)C5=O)CC3)cc1)c1nnc(C)n1-2` (some centres undefined), the solubility result in data set [2] and in data set [3] was “Insoluble” in each case. The result in the data set with HEK293 [4] and in the data set on HEK293 [5] was Active. Besides, the outcome with HEK293 [6], in the data set with HEK293 [7], with HEK293 [8], in the data set with HEK293 [9], with HEK293 [10] and in the data set on HEK293 [11] was inactive.

The values above are taken from ChEMBL document CHEMBL6153153, “Use of Aldehyde-Alkyne-Amine Couplings to Generate Medicinal Chemistry-Relevant Linkers” (ACS Med Chem Lett, 2025).
